Test results from ChEMBL document CHEMBL1201862, “PubChem BioAssay data set” (2004).
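Interpolation was linear, between the two tested concentrations surrounding the appropriate level; five concentrations were tested over 48 hours in 96-well plates. Abbreviation: GI50, concentration required for 50% inhibition of growth.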 Calls of active or inactive are those of the source. Cut-off read from the data, not from the text of the source: active = GI50 up to about 1.1 µM and inactive = higher.

Legend:
Experiment in all cases: NCI-60 cell line screen, 48 h
M19-MEL = tested on: M19-MEL
LXFL 529 = tested on: LXFL 529
HL-60 = tested on: HL-60
CAKI-1 = tested on: CAKI-1
A498 = tested on: A498
HCT-116 = tested on: HCT-116
DMS-114 = tested on: DMS-114
SK-OV-3 = tested on: SK-OV-3
SNB-19 = tested on: SNB-19
SK-MEL-28 = tested on: SK-MEL-28
SF-539 = tested on: SF-539
SW-620 = tested on: SW-620
KM-20L2 = tested on: KM-20L2
DMS-273 = tested on: DMS-273
ACHN = tested on: ACHN
SNB-78 = tested on: SNB-78
OVCAR-5 = tested on: OVCAR-5
HOP-92 = tested on: HOP-92
TK-10 = tested on: TK-10
RXF 631 = tested on: RXF 631
OVCAR-3 = tested on: OVCAR-3
786-0 = tested on: 786-0
U-251 = tested on: U-251
A549 = tested on: A549
EKVX = tested on: EKVX
IGROV-1 = tested on: IGROV-1
SK-MEL-2 = tested on: SK-MEL-2
OVCAR-8 = tested on: OVCAR-8
MOLT-4 = tested on: MOLT-4
SF-295 = tested on: SF-295
UACC-257 = tested on: UACC-257
SN12C = tested on: SN12C
HCC 2998 = tested on: HCC 2998
NCI-H522 = tested on: NCI-H522
NCI-H460 = tested on: NCI-H460
HOP-62 = tested on: HOP-62
HCT-15 = tested on: HCT-15
NCI-H226 = tested on: NCI-H226
CCRF-CEM = tested on: CCRF-CEM
K562 = tested on: K562
UACC-62 = tested on: UACC-62
HT-29 = tested on: HT-29
KM12 = tested on: KM12
UO-31 = tested on: UO-31
DLD-1 = tested on: DLD-1
SF-268 = tested on: SF-268
Malme-3M = tested on: Malme-3M
M14 = tested on: M14
OVCAR-4 = tested on: OVCAR-4
HOP-18 = tested on: HOP-18
RPMI-8226 = tested on: RPMI-8226
XF498 = tested on: XF498
NCI-H23 = tested on: NCI-H23
LOX IMVI = tested on: LOX IMVI
COLO 205 = tested on: COLO 205

CCOC(=O)C12CCCC1(O)N(NC(=O)OC(C)(C)C)C(C)=C2C(=O)OC (stereo not given)
GI50 (M19-MEL): > 100 µM (inactive) | GI50 (LXFL 529): > 100 µM (inactive) | GI50 (HL-60): > 100 µM (inactive) | GI50 (CAKI-1): > 100 µM (inactive) | GI50 (A498): > 100 µM (inactive) | GI50 (HCT-116): > 100 µM (inactive) | GI50 (DMS-114): > 100 µM (inactive) | GI50 (SK-OV-3): > 100 µM (inactive) | GI50 (SNB-19): > 100 µM (inactive) | GI50 (SK-MEL-28): > 10 µM (inactive) | GI50 (SF-539): > 100 µM (inactive) | GI50 (SW-620): > 100 µM (inactive) | GI50 (KM-20L2): > 100 µM (inactive) | GI50 (DMS-273): > 100 µM (inactive) | GI50 (ACHN): > 100 µM (inactive) | GI50 (SNB-78): > 100 µM (inactive) | GI50 (OVCAR-5): > 100 µM (inactive) | GI50 (HOP-92): > 100 µM (inactive) | GI50 (TK-10): > 100 µM (inactive) | GI50 (RXF 631): > 100 µM (inactive) | GI50 (OVCAR-3): > 100 µM (inactive) | GI50 (786-0): > 100 µM (inactive) | GI50 (U-251): > 100 µM (inactive) | GI50 (A549): > 100 µM (inactive) | GI50 (EKVX): > 100 µM (inactive) | GI50 (IGROV-1): > 100 µM (inactive) | GI50 (SK-MEL-2): > 100 µM (inactive) | GI50 (OVCAR-8): > 100 µM (inactive) | GI50 (MOLT-4): > 100 µM (inactive) | GI50 (SF-295): > 100 µM (inactive) | GI50 (UACC-257): > 100 µM (inactive) | GI50 (SN12C): > 100 µM (inactive) | GI50 (HCC 2998): > 100 µM (inactive) | GI50 (NCI-H522): 97.3 µM (inactive) | GI50 (NCI-H460): > 100 µM (inactive) | GI50 (HOP-62): > 100 µM (inactive) | GI50 (HCT-15): > 100 µM | GI50 (NCI-H226): > 100 µM (inactive) | GI50 (CCRF-CEM): > 100 µM (inactive) | GI50 (K562): > 100 µM (inactive) | GI50 (UACC-62): > 100 µM (inactive) | GI50 (HT-29): > 100 µM (inactive) | GI50 (KM12): > 100 µM (inactive) | GI50 (UO-31): > 100 µM (inactive) | GI50 (DLD-1): > 100 µM (inactive) | GI50 (SF-268): > 100 µM (inactive) | GI50 (Malme-3M): > 100 µM (inactive) | GI50 (M14): > 100 µM (inactive) | GI50 (OVCAR-4): > 100 µM (inactive) | GI50 (HOP-18): > 100 µM (inactive) | GI50 (RPMI-8226): > 100 µM (inactive) | GI50 (XF498): > 100 µM (inactive) | GI50 (NCI-H23): > 100 µM (inactive) | GI50 (LOX IMVI): > 100 µM (inactive) | GI50 (COLO 205): > 100 µM (inactive)
